Earlier results, collected in US9066860B2, “Oil-in-water emulsified composition” (SHISEIDO COMPANY, LTD., priority 2009, dated 2015).

Details: background art statement

Row | Maximum (peak) absorption wavelength | SMILES
1 | ~310 nm | CCCCC(CC)COC(=O)C=Cc1ccc(OC)cc1 (stereo not drawn) [2-ethylhexyl p-methoxycinnamate]
2 | ~290 nm | CCCCC(CC)COC(=O)c1ccc(N(C)C)cc1 (stereo not drawn) [2-ethylhexyl-p-dimethylaminobenzoate]
3 | around 360 nm | COc1ccc(C(=O)CC(=O)c2ccc(C(C)(C)C)cc2)cc1 [4-tert-butyl-4′-methoxydibenzoylmethane]
